Laboratory results from article PMC2923493 (Tetrahedron, 2010).
Read-outs that look alike come from different tables or passages of the source.

Experiments:
[1] = tested on: HT-29 human colon cancer cells; test: Cytotoxicity assay; format: cell-based; conditions: HT-29 cells, three days
[2] = target: T1, chymotrypsin-like proteasome activity (Homo sapiens, UniProt P28074); test: Proteasome inhibition assay; format: biochemical
T1 sequence (P28074 60-263): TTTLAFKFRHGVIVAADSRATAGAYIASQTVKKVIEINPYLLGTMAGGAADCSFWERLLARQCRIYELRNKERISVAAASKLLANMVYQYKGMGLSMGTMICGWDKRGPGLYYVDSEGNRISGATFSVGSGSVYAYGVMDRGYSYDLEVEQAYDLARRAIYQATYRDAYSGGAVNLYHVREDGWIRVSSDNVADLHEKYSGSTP

[3] = tested on: LNCaP, HT-29, MCF-7 and MDA-MB 435 human cancer cells; test: In vivo hollow fiber assay; conditions: highest dose tested (20 mg/kg), mice, intraperitoneal, all cell lines
human SPC-A1 cell [4] = conditions: cited from earlier work
human SPC-A1 cell [5] = conditions: cited from earlier work; remark: listed apart in the source
[6] = read-out: Proteasome Inhibition IC50, Suc-LLVY-AMC 10 μM

Compound | Cytotoxicity ED50 [1] [µM] | IC50 [2, 6] [µM] | further results
CC1(C)Oc2c(cc3c(=O)c4c(O)cc(O)cc4oc3c2O)[C@H](O)[C@H]1O [Compound 2, (3R,4S)-3,4,7,9,12-pentahydroxy-2,2-dimethyl-3,4-dihydropyrano[3,2-b]xanthen-6(2H)-one] | >10 |  | 
CO[C@H]1[C@H]2C(=O)c3c(O)c4c(c(CC=C(C)C)c3O[C@@]23[C@@H]2C[C@H]1C(=O)[C@]3(C/C=C(/C)C(=O)O)OC2(C)C)OC(C)(C)C=C4 [Compound 3, isomoreollic acid] | 1.9 | > 10 | 
CC(C)=CCc1c(O)c(CC=C(C)C)c2c(c1O)C(=O)C1=C[C@H]3C[C@@H]4C(C)(C)O[C@@](C/C=C(/C)C(=O)O)(C3=O)[C@@]14O2 [Compound 4, isogaudichaudiic acid] | 3.2 | > 10 | 
C=C(C)C(O)Cc1c2c(c(O)c3c1O[C@]14C(=C[C@H]5C[C@@H]1C(C)(C)O[C@@]4(C/C=C(\C)C(=O)O)C5=O)C3=O)C=CC(C)(C)O2 (some centres unmarked) [Compound 5, isogaudichaudiic acid E] | 2.6 | > 10 | 
CC(C)=CCc1c2c(c(O)c3c1O[C@]14C(=C[C@H]5C[C@@H]1C(C)(C)O[C@@]4(C/C=C(/C)C(=O)O)C5=O)C3=O)CC(O)C(C)(C)O2 (stereo partly drawn) [Compound 6, (5R,7S,10aS,27S)-11,12-dihydro-12-hydroxymorellic acid] | 2.9 |  | 
O=C1c2c(O)cc(O)cc2O[C@H](c2ccc(O)cc2)[C@H]1c1c(O)cc(O)c2c(=O)cc(-c3ccc(O)c(O)c3)oc12 [Compound 8, morelloflavone] | >10 |  | IC50 [2]: 1.3 µM
O=C1c2c(O)cc(O)cc2O[C@@H](c2ccc(O)cc2)[C@@H]1c1c(O)cc(O)c2c(=O)cc(-c3ccc(O)cc3)oc12 [Compound 9, talbotaflavone] |  | 4.4 | 
CC(C)=CCc1c2c(c(O)c3c1O[C@]14C(=C[C@@H]5C[C@H]1C(C)(C)O[C@@]4(C/C=C(/C)C(=O)O)C5=O)C3=O)C=CC(C)(C)O2 [Compound 10, morellic acid] | 0.36 | > 10 | Activity in in vivo hollow fiber assay [3]: inactive
CC(C)=CCC[C@]1(C)C=Cc2c(O)c3c(c(CC=C(C)C)c2O1)O[C@]12C(=C[C@@H]4C[C@H]1C(C)(C)O[C@@]2(C/C=C(/C)C(=O)O)C4=O)C3=O [gambogic acid] |  |  | Inhibition of SPC-A1 cell growth in vivo (human SPC-A1 cell [4]): inhibited; Inhibition of SPC-A1 cell growth in vitro (human SPC-A1 cell [5]): inhibited
isogaudichaudiic acid B [Compound 7] | >10 |  | 
